Data as given in ChEMBL document CHEMBL1201862, “PubChem BioAssay data set” (2004).
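A five-concentration, 48-hour dose response in 96-well plates underlies each endpoint, interpolated linearly between surrounding concentrations. Abbreviation: GI50, concentration required for 50% inhibition of growth.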 Calls of active or inactive are those of the source. Rule as the data show it: active = GI50 up to about 1.1 µM and inactive = higher. Where a SMILES comes first, the peptide text is derived from it. The star is where a group is joined. Boc = CC(C)(C)OC(=O)*

Legend:
Assay in all cases: DTP human tumour cell line panel, 48 h
786-0 = test system: 786-0
CCRF-CEM = test system: CCRF-CEM
HT-29 = test system: HT-29
KM12 = test system: KM12
MOLT-4 = test system: MOLT-4
NCI-H23 = test system: NCI-H23
NCI-H522 = test system: NCI-H522
OVCAR-4 = test system: OVCAR-4
SF-539 = test system: SF-539
SK-OV-3 = test system: SK-OV-3
SN12C = test system: SN12C
SNB-75 = test system: SNB-75
TK-10 = test system: TK-10
UACC-62 = test system: UACC-62
UO-31 = test system: UO-31
CAKI-1 = test system: CAKI-1
HL-60 = test system: HL-60
OVCAR-3 = test system: OVCAR-3
SK-MEL-5 = test system: SK-MEL-5
U-251 = test system: U-251

Structure (SMILES) | GI50 (786-0) | GI50 (CCRF-CEM) | GI50 (HT-29) | GI50 (KM12) | GI50 (MOLT-4) | GI50 (NCI-H23) | GI50 (NCI-H522) | GI50 (OVCAR-4) | GI50 (SF-539) | GI50 (SK-OV-3) | GI50 (SN12C) | GI50 (SNB-75) | GI50 (TK-10) | GI50 (UACC-62) | GI50 (UO-31) | GI50 (CAKI-1) | GI50 (HL-60) | GI50 (OVCAR-3) | GI50 (SK-MEL-5) | GI50 (U-251)
Cc1cnc2nc(-c3ccc4ccccc4c3)cc(O)c2c1 | 0.61 µM (active) | 0.323 µM (active) | 0.53 µM (active) | 0.444 µM (active) | 0.431 µM (active) | 0.434 µM (active) | 0.321 µM (active) | 0.659 µM (active) | 0.391 µM (active) | 0.578 µM (active) | 0.966 µM (active) | 0.391 µM (active) | 2.4 µM (inactive) | 0.317 µM (active) | 0.847 µM (active) |  |  |  |  | 
COc1ccc(OCC(C)(C)O)cc1 |  | > 100 µM (inactive) | > 100 µM (inactive) | > 100 µM (inactive) | > 100 µM (inactive) | > 100 µM (inactive) |  | > 62.8 µM (inactive) | > 100 µM (inactive) | > 100 µM (inactive) | > 100 µM (inactive) | > 47 µM (inactive) |  | > 100 µM (inactive) | > 100 µM (inactive) | > 100 µM (inactive) | > 100 µM (inactive) | > 100 µM (inactive) | > 100 µM (inactive) | > 100 µM (inactive)
CC(C)Oc1cccc(N2C(n3ccnc3)=Nc3ccncc3S2(=O)=O)c1 | 10.4 µM (inactive) |  | 15.9 µM (inactive) | 23.2 µM (inactive) | 4.3 µM (inactive) | 11.5 µM (inactive) | 9.44 µM (inactive) | 14 µM (inactive) | 6.31 µM (inactive) | 17.5 µM (inactive) | 15.5 µM (inactive) | 18.7 µM (inactive) | 12.1 µM (inactive) | 15.7 µM (inactive) | 21.6 µM (inactive) | 13.7 µM (inactive) |  | 9.35 µM (inactive) | 13.2 µM (inactive) | 15.4 µM (inactive)
C=C1C(=O)O[C@@H]2C[C@@]3(C)[C@H](O)CCC(=C)[C@@H]3C[C@H]12 [ASPERILIN] | 9.66 µM (inactive) | 3.01 µM (inactive) | 3.6 µM (inactive) | 3.49 µM (inactive) |  | 11.4 µM (inactive) | 4.16 µM (inactive) | 11.8 µM (inactive) | 11 µM (inactive) | 22.3 µM (inactive) | 5.94 µM (inactive) | 3.69 µM (inactive) | 12.5 µM (inactive) | 5.96 µM (inactive) | 10.8 µM (inactive) | 5.58 µM (inactive) |  | 8.15 µM (inactive) | 4.26 µM (inactive) | 13.4 µM (inactive)
CCOC(=O)c1cn2c(n1)sc1cc([N+](=O)[O-])ccc12 | 43.1 µM (inactive) | > 100 µM (inactive) | 86.1 µM (inactive) | > 100 µM (inactive) | > 100 µM (inactive) | > 100 µM (inactive) | > 100 µM (inactive) | > 100 µM (inactive) | 62.7 µM (inactive) | > 100 µM (inactive) | > 100 µM (inactive) | 58.2 µM (inactive) | > 100 µM (inactive) | > 100 µM (inactive) | > 100 µM (inactive) | > 100 µM (inactive) |  | > 100 µM (inactive) | > 100 µM (inactive) | 76 µM (inactive)
C[C@]12CC[C@H](OC3CCCCO3)CC1=CC[C@@H]1C2CC[C@]2(C)/C(=N/OCCC#N)CCC12 (stereo partly drawn) | 23.1 µM (inactive) |  | 2.17 µM (inactive) | > 100 µM (inactive) |  | 11.4 µM (inactive) | 18.5 µM (inactive) | 18.9 µM (inactive) | 83.4 µM (inactive) | 37.5 µM (inactive) | 64.7 µM (inactive) | 20.3 µM (inactive) | 24 µM (inactive) | 97.1 µM (inactive) | 47.8 µM (inactive) | 45.8 µM (inactive) |  | 68.7 µM (inactive) | 7.74 µM (inactive) | 40.4 µM (inactive)
CCCCc1c2cnccc2c(CCCC)c2c1[nH]c1ccccc12 | 10 µM (inactive) | 9.38 µM (inactive) | 9.91 µM (inactive) | 8.38 µM (inactive) | 2.84 µM (inactive) | 5.33 µM (inactive) | 12.4 µM (inactive) | 8.99 µM (inactive) | 3.42 µM (inactive) | 27.4 µM (inactive) | 18 µM (inactive) | 5.87 µM (inactive) | 19.2 µM (inactive) | 11.6 µM (inactive) | 10.4 µM (inactive) | 5.9 µM (inactive) |  | 5.26 µM (inactive) |  | 12.8 µM (inactive)
O=C1/C(=C/c2ccc(Oc3ccccc3)cc2)N=C(c2ccccc2)N1c1ccc(S(=O)(=O)Nc2nccs2)cc1 | 31.4 µM (inactive) | 26.2 µM (inactive) | 9.68 µM (inactive) | 5.15 µM (inactive) | 12.6 µM (inactive) | 32.7 µM (inactive) |  | 38.6 µM (inactive) | 31.5 µM (inactive) | 27.8 µM (inactive) | 39.8 µM (inactive) | 7.53 µM (inactive) | 26.8 µM (inactive) | 19.5 µM (inactive) | 21.8 µM (inactive) | 21.7 µM (inactive) | 6.73 µM (inactive) | 17.3 µM (inactive) | 17.5 µM (inactive) | 17.1 µM (inactive)
C#CCN1C(=O)CN2C(Cl)(Cl)C2(c2ccccc2)c2cc(Cl)ccc21 (stereo not drawn) |  | 44.3 µM (inactive) | 40.9 µM (inactive) | 28.6 µM (inactive) | 25.1 µM (inactive) | 86.7 µM (inactive) | 35.3 µM (inactive) | 72.1 µM (inactive) |  |  | 37.2 µM (inactive) | > 10 µM (inactive) | 89.9 µM (inactive) |  | 68.1 µM (inactive) | 30.1 µM (inactive) |  | 87.5 µM (inactive) | 51.3 µM (inactive) | > 10 µM (inactive)
CCCOC1OC(CS(=O)(=O)O)C(O)C(O)C1O (stereo not drawn) |  | > 100 µM (inactive) | > 100 µM (inactive) | > 100 µM (inactive) | > 100 µM (inactive) | > 100 µM (inactive) |  | > 100 µM (inactive) |  | > 100 µM (inactive) | > 100 µM (inactive) | > 100 µM (inactive) | > 100 µM (inactive) | > 100 µM (inactive) | > 100 µM (inactive) | > 100 µM (inactive) | > 100 µM (inactive) | > 100 µM (inactive) | > 100 µM (inactive) | > 100 µM (inactive)
S=C(Cc1ccc2c(c1)Sc1ccccc1O2)N1CCOCC1 | 56.9 µM (inactive) |  | 24.6 µM (inactive) | 29 µM (inactive) | 52.1 µM (inactive) | 46.2 µM (inactive) |  | > 100 µM (inactive) | 21.2 µM (inactive) | 49.9 µM (inactive) | > 100 µM (inactive) | 18.7 µM (inactive) | > 100 µM (inactive) | 28.6 µM (inactive) | 26.1 µM (inactive) | 38.9 µM (inactive) | 16 µM (inactive) | 49.5 µM (inactive) |  | 31.8 µM (inactive)
COc1cc(C2C(C(=O)NCc3ccccc3)=C(C)NC(C)=C2C(=O)NCc2ccccc2)ccc1O | 46.2 µM (inactive) | 26.3 µM (inactive) | 21.5 µM (inactive) |  | 20.4 µM (inactive) | 31.7 µM (inactive) |  | 40.1 µM (inactive) | 20.9 µM (inactive) |  | 31.5 µM (inactive) | 44.9 µM (inactive) | 35.2 µM (inactive) | 21.8 µM (inactive) | 65.3 µM (inactive) | 24.9 µM (inactive) | 25.4 µM (inactive) | 29.8 µM (inactive) | 59.4 µM (inactive) | 28.6 µM (inactive)
COC(=O)[C@H](Cc1ccc(O)cc1)NC(=O)[C@H](Cc1ccc(O)cc1)NC(=O)OC(C)(C)C (Boc-Tyr-Tyr-OMe) | > 100 µM (inactive) |  | > 100 µM (inactive) | > 100 µM (inactive) |  | > 100 µM (inactive) | 28 µM (inactive) |  | 82.2 µM (inactive) | > 100 µM (inactive) |  | > 100 µM (inactive) | > 100 µM (inactive) | > 100 µM (inactive) | > 100 µM (inactive) | > 100 µM (inactive) |  | 72.3 µM (inactive) | 38 µM (inactive) | 
CN(C)CC1CCCC1=O (stereo not drawn) | 7.53 µM (inactive) | 0.138 µM (active) | 0.682 µM (active) | 1.66 µM (inactive) | 0.144 µM (active) | 4.48 µM (inactive) |  | 1.97 µM (inactive) | 7.89 µM (inactive) | 15.3 µM (inactive) | 1.06 µM (active) | 3.78 µM (inactive) | 2.96 µM (inactive) | 4.37 µM (inactive) | 9.38 µM (inactive) | 0.139 µM (active) | 0.084 µM (active) | 1.51 µM (inactive) | 2.86 µM (inactive) | 6.82 µM (inactive)
CC(=O)[C@@]1(c2ccccc2)CC2(CCN(C)CC2)O[C@H]1C | > 100 µM (inactive) |  | > 100 µM (inactive) | > 100 µM (inactive) | > 100 µM (inactive) | > 100 µM (inactive) | > 100 µM (inactive) | > 100 µM (inactive) | > 100 µM (inactive) | > 100 µM (inactive) | > 100 µM (inactive) | > 100 µM (inactive) | > 100 µM (inactive) |  | > 100 µM (inactive) | > 100 µM (inactive) |  | > 100 µM (inactive) | > 100 µM (inactive) | > 100 µM (inactive)
O=C(O)C1(Cc2ccc3c(c2)CCC3)Cc2cc3c(cc2C1)CCC3 | > 100 µM (inactive) | > 100 µM (inactive) | > 100 µM (inactive) | > 100 µM (inactive) | > 100 µM (inactive) |  |  | > 100 µM (inactive) | > 100 µM (inactive) | > 100 µM (inactive) |  | > 100 µM (inactive) | > 100 µM (inactive) | > 100 µM (inactive) | > 100 µM (inactive) |  | > 100 µM (inactive) | > 100 µM (inactive) | > 100 µM (inactive) | > 100 µM (inactive)
